Measurements reported in patent publication US20100041665A1, “N-PHENYL-PRENYLAMINE DERIVATIVES FOR THE TREATMENT OF COGNITIVE, NEURODEGENERATIVE OR NEURONAL DISEASES OR DISORDERS” (NOSCIRA, S.A., priority 2006, published 2010).

Columns and labels:
[1] = target: Recombinant human glycogen synthase kinase 3 beta (Homo sapiens, UniProt P49841); assay: GSK-3 beta inhibition assay; type: biochemical; details: percentage of enzyme activity; for remaining activity at 25 µM / remaining activity at 50 µM: 0.5 h
Recombinant human glycogen synthase kinase 3 beta, sequence (P49841 whole entry): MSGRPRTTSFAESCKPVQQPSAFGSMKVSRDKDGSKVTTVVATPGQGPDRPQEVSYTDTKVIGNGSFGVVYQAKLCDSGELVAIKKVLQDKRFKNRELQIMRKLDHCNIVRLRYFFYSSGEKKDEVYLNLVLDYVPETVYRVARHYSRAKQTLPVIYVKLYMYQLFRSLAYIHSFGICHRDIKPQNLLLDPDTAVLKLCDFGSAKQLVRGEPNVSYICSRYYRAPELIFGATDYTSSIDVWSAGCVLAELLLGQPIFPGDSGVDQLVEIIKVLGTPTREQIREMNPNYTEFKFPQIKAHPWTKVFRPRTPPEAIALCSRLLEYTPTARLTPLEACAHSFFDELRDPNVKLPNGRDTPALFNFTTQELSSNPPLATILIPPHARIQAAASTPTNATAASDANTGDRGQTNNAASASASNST
Description: GSK-3 beta Inhibition Assay
The GSK-3 beta activity of the compounds of formula (I) according to the present invention was determined by incubation of a mixture of recombinant human GSK-3 enzyme, a phosphate source and GSK-3 substrate in the presence and in the absence of the corresponding test compound, and by measuring the GSK-3 activity of this mixture. The compounds where tested at final concentrations of 25 and 50 μM.
Recombinant human glycogen synthase kinase 3 beta was assayed in MOPS 11 mM, pH 7.4, EDTA 0.2 mM, EGTA 1.25 mM, MgCl2 26.25 mM and sodium orthovanadate 0.25 mM in the presence of 62.5 μM of Phospho-Glycogen Synthase Peptide-2 (GS-2), 0.5 μCi gamma-^33P-ATP and unlabelled ATP at a final concentration of 12.5 μM. The final assay volume was 20 μl. After incubation for 30 minutes at 30° C., 15 μl aliquots were spotted onto P81 phosphocellulose papers. Filters were washed four times for at least 10 minutes each and counted with 1.5 ml of scintillation cocktail in a scintillation counter.
(§1) The compounds of formula (I) of the present invention where submitted to the above indicated assays, in order to determine both their GSK-3 inhibition activity and BACE activity inhibition. The results are indicated in Table I and Table II, in percentage of the respective enzyme activity.

[2] = target: T1, rhBACE-1 β-Secretase recombinant human (Homo sapiens, UniProt P56817); assay: BACE assay (FRET); type: biochemical; details: percentage of enzyme activity
T1 construct: purchased R&D Systems 931-AS
T1 sequence (P56817 46-457 limits assumed): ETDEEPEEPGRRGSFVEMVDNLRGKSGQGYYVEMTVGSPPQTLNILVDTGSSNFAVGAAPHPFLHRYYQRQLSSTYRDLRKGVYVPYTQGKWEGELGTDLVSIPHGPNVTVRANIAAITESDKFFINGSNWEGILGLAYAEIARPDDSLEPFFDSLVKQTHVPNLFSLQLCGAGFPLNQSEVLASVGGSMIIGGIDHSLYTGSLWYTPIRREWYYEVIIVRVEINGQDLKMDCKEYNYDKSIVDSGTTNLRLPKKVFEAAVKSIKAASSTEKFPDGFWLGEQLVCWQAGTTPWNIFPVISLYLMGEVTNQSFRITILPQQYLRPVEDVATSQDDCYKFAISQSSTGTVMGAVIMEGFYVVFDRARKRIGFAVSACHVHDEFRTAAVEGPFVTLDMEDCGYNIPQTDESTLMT
From the text: The aim of this assay is to determine if a compound, either synthetic or of marine origin, is a BACE-1 inhibitor, to avoid the formation of Aβ. This assay is based on FRET technology (Fluorescence Resonance Energy Transfer). FRET is used to measure cleavage of a peptide substrate, among other uses. […] When a substrate peptide cleavage occurs, the energy balance is broken and all the donor fluorescence can be observed. The increase in fluorescence is linearly related to the rate of proteolysis (Gordon, G W et al., 1998). In this assay the reaction occurs between an enzyme, purified BACE-1, and a fluorogenic peptidic substrate who present the “Swedish mutation”. The peptide cleavage by BACE-1 produces fluorescence energy and enzymatic activity can be quantified.
The reagents which are used in this assay are the following: • rhBACE-1 β-Secretase recombinant human (R&D Systems. Ref. 931-AS). • Fluorogenic Peptide Substrate IV (R&D Systems. Ref. ES004). • Beta-SECRETASE INHIBITOR H-4848. (BACHEM. Ref. H-4848.0001). • Sodium acetate.
The assay is carried out in a 96 wells microplate. The final concentration of substrate is 3.5 μM per well, and the enzyme concentration is 0.5 μg/ml. The final volume of the assay is 100 μl per well and all reagents are diluted in Reaction Buffer. The compounds are tested at a concentration of 10^−5 and 10^−6 M. The control in the assay is the commercial inhibitor β-Secretase inhibitor H-4848 from BACHEM, which is tested at 300 nM. All the samples and controls are studied by duplicate.
The plate is mixed gently and changes in the fluorescence are measured using a fluorimeter plate reader, with 320 nm excitation filter and 405 nm emission filter. The temperature should be preferably maintained between 25 and 30° C. Measurements are carried out every ten minutes during an hour. The first measure is subtracted from the last to calculate the fluorescence increase, evaluating the enzymatic activity. The 100% activity is calculated as the mean of the results of wells without sample or inhibitor.
In the cases where abnormal effects in fluorescence were detected, BACE inhibition activity was assayed using BACE-1 (beta-Secretase) FRET ASSAY KIT (Invitrogen, Ref. P2985). Fluorescence was measured with a fluorimeter plate reader, with 544 nm excitation filter and 580 nm emission filter.
as §1

SMILES	remaining activity at 25 µM ([1]; compound at 25 μM)	remaining activity at 50 µM ([1]; compound at 50 μM)	% of BACE activity ([2]; compound at 1 μM)	% of BACE activity ([2]; compound at 10 μM)	% GSK-3 beta activity ([1]; compound at 25 μM)	% GSK-3 beta activity ([1]; compound at 50 μM)
CCC(C)Oc1ccc(C(=O)OC)cc1NCC=C(C)CCC=C(C)CCC=C(C)C (centres unmarked) [Compound 40, 4-sec-Butoxy-3-(3,7,11-trimethyl-dodeca-2,6,10-trienylamino)-benzoic acid methyl ester]	111%	99.4%	100%	100%	–	–
CC(C)=CCC/C(C)=C/CC/C(C)=C/CNc1cc(C(=O)O)ccc1O [Compound 48]	105%	97.9%	100%	36.5 ± 0.7%	–	–
COc1ccc(C(=O)NC(=N)n2cccn2)cc1N(C/C=C(\C)CCC=C(C)C)C/C=C(\C)CCC=C(C)C [Compound 41]	88.9%	98.4%	73 ± 2%	75 ± 9%	–	–
COC(=O)c1ccc(OC)c(N(C/C=C(\C)CCC=C(C)C)C/C=C(\C)CCC=C(C)C)c1 [Compound 30]	–	–	48 ± 6%	33 ± 7%	17.31%	0.17%
COC(=O)c1ccc(OC(C)=O)c(N(C/C=C(\C)CCC=C(C)C)C/C=C(\C)CCC=C(C)C)c1 [Compound 31]	108%	17.4%	89.5 ± 18%	4.5 ± 6%	–	–
CC(C)=CCC/C(C)=C/CN(C/C=C(\C)CCC=C(C)C)c1cccc(C(=O)O)c1 [Compound 24]	37.4%	24.6%	24 ± 12%	1.6 ± 2%	–	–
COc1ccc(C(=O)/N=C(\N)NCCO)cc1N(C/C=C(\C)CCC=C(C)C)C/C=C(\C)CCC=C(C)C [Compound 47]	34.7%	19.1%	–	–	–	–
COCOc1ccc(C(=O)OC)cc1NC/C=C(\C)CC/C=C(\C)CCC=C(C)C [Compound 14]	61.8%	25.4%	60 ± 17%	4 ± 6%	–	–
COC(=O)c1ccc(O)c(N(CC=C(C)CCC=C(C)CCC=C(C)C)CC=C(C)CCC=C(C)CCC=C(C)C)c1 [Compound 28, 3-[Bis-(3,7,11-trimethyl-dodeca-2,6,10-trienyl)-amino]-4-hydroxy-benzoic acid methyl ester]	48.5%	20.7%	83 ± 12%	40.5 ± 19%	–	–
COc1ccc(C(=O)N2CCN(CCO)CC2)cc1N(CC=C(C)CCC=C(C)C)CC=C(C)CCC=C(C)C [Compound 39, {3-[Bis-(3,7-dimethyl-octa-2,6-dienyl)-amino]-4-methoxy-phenyl}-[4-(2-hydroxy-ethyl)-piperazin-1-yl]-methanone]	55.1%	13.2%	100%	100%	–	–
COc1ccccc1N(C/C=C(\C)CCC=C(C)C)C/C=C(\C)CCC=C(C)C [Compound 27]	90.7%	59.6%	88.5 ± 0.7%	51 ± 16%	–	–

Now from value to compound:

remaining activity at 25 µM ([1]; compound at 25 μM)	remaining activity at 50 µM ([1]; compound at 50 μM)	% of BACE activity ([2]; compound at 1 μM)	% of BACE activity ([2]; compound at 10 μM)	% GSK-3 beta activity ([1]; compound at 25 μM)	% GSK-3 beta activity ([1]; compound at 50 μM)	SMILES
27.9%	19.8%	122.5 ± 23.3%	115.5 ± 29%	–	–	COc1ccc(C(=O)NCCc2c[nH]cn2)cc1N(C/C=C(\C)CCC=C(C)C)C/C=C(\C)CCC=C(C)C [Compound 46]
56.6%	5.35%	100%	100%	–	–	COC(=O)c1ccc(OC)c(N(C/C=C(\C)CC/C=C(\C)CCC=C(C)C)C/C=C(\C)CC/C=C(\C)CCC=C(C)C)c1 [Compound 18]
79.7%	80.1%	45 ± 12%	7 ± 7%	–	–	COC(=O)c1ccc(OC)c(NCC=C(C)CCC=C(C)COC2CCCCO2)c1 (centres unmarked) [Compound 36, 3-[3,7-Dimethyl-8-(tetrahydro-pyran-2-yloxy)-octa-2,6-dienylamino]-4-methoxy-benzoic acid methyl ester]
34.7%	19.1%	100%	100%	–	–	COC(=O)c1ccc(OC)c(NCC=C(C)CCC=C(C)CCC=C(C)CCC=C(C)C)c1 [Compound 34, 4-Methoxy-3-(3,7,11,15-tetramethyl-hexadeca-2,6,10,14-tetraenylamino)-benzoic acid methyl ester]
74.8%	56.7%	94 ± 8%	64.5 ± 9%	–	–	COc1ccccc1NCC=C(C)CCC=C(C)CCC=C(C)C [Compound 12, (2-Methoxy-phenyl)-(3,7,11-trimethyl-dodeca-2,6,10-trienyl)-amine]
79.6%	8.26%	–	–	–	–	CCCOc1ccc(C(=O)OC)cc1N(C/C=C(\C)CC/C=C(\C)CCC=C(C)C)CCC [Compound 44]
–	–	43 ± 15%	0%	73.2%	42.14%	COC(=O)c1ccc(OC)c(N(C/C=C(\C)CCC=C(C)C)C/C=C(\C)CCC=C(C)C)c1 [Compound 17]
71.3%	40.4%	2.5 ± 3.5%	0 ± 0%	–	–	COC(=O)c1ccc(O)c(N(C/C=C(\C)CCC=C(C)C)C/C=C(\C)CCC=C(C)C)c1 [Compound 29]
37.4%	21.6%	41 ± 12%	0%	–	–	CC(C)=CCC/C(C)=C/CC/C(C)=C/CN(C/C=C(\C)CC/C=C(\C)CCC=C(C)C)c1cccc(C(=O)O)c1 [Compound 23]
106%	110%	–	–	–	–	COc1ccc(C(=O)NCCCO)cc1N(C/C=C(\C)CCC=C(C)C)C/C=C(\C)CCC=C(C)C [Compound 42]
125%	111%	–	–	–	–	COc1ccc(C(=O)/N=C(\N)NCCCO)cc1N(C/C=C(\C)CCC=C(C)C)C/C=C(\C)CCC=C(C)C [Compound 45]
